Reference: PMC4592898, “Biochemical Characterisation of Phage Pseudomurein Endoisopeptidases PeiW and PeiP Using Synthetic Peptides” (Archaea, 2015)

What was measured:
PeiP = target: T1, PeiP (Methanobacterium phage psiM2, UniProt Q77WJ4); test: inhibition of EγApNA hydrolysis, […] nm, […] min preincubation; assay type: biochemical; details: read-out: % inhibition at 1 mM
T1 construct: N-terminal His-tag kept, pET151D, E. coli BL21-Rosetta 2; 338 residues and 39,537 Da with tag; monomer

PeiW = target: T2, PeiW (Methanothermobacter phage psiM100, UniProt Q7LYX0); test: as above; assay type: biochemical; details: for inhibition at 1000 µM: read-out: % inhibition at 1 mM
T2 construct: N-terminal His-tag kept, pET151D, E. coli BL21-Rosetta 2; 317 residues and 37,219 Da with tag; monomer
T2 sequence (Q7LYX0 whole entry): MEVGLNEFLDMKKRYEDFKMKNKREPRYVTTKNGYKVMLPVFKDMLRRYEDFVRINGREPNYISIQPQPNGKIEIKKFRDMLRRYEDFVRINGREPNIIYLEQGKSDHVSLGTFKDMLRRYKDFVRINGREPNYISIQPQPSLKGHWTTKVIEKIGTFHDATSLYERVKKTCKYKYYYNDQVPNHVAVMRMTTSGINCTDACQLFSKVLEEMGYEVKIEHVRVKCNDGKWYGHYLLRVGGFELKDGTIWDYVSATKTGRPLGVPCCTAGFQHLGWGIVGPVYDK

T1 sequence (Q77WJ4 whole entry): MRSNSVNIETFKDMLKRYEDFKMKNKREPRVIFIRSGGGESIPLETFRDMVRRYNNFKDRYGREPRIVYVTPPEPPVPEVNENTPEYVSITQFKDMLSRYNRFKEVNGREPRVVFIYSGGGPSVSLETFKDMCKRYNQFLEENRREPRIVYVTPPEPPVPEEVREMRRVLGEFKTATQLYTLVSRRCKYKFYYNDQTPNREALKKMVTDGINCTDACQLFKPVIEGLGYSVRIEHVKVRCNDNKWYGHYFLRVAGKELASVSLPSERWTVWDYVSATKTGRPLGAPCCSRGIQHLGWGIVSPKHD

Row | SMILES | inhibition at 1000 µM (PeiP) [%] | inhibition at 1000 µM (PeiW) [%] | % inhibition at 1 mM (PeiW; 60 °C, pH 7.85, 10 mM CaCl2, 10 mM TCEP) [%]
1 | NCCSSCCN [Cystamine] | 100 | 100 | 
2 | CN(C)c1cccc2c(S(=O)(=O)NCCCCCN)cccc12 [Dansylcadaverine] | 50 | 60 | 
3 | CC(C)C[C@H](NC(=O)[C@@H]1O[C@H]1C(=O)O)C(=O)NCCCCNC(=N)N [E64] | 30 | 10 | 
4 | O=S(=O)(F)Cc1ccccc1 [PMSF] |  |  | 10
